In article PMC9019904, “AD Informer Set: Chemical tools to facilitate Alzheimer's disease drug discovery” (Alzheimer's & Dementia : Translational Research & Clinical …, 2022):

What was measured:
[1] = system: HMC3 (human microglia) cell line; experiment: pHrodo-myelin phagocytosis/cell viability high content imaging assay: viability (cell count, nuclear area, nuclear intensity); details: for 1. Cell count (% control) / 2. Nuclear Area (% Control) / 3. Nuclear DNA Intensity (% control): 48 hours treatment
How it was run: (§1)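 Cells adhered overnight, then were exposed to compounds at a single 10 μM for 48 h in total, with pHrodo-myelin added for the last 20 h. High-content imaging gave cell count per well as the main viability measure plus mean nuclear intensity per cell. Duplicate wells were averaged and expressed as % of untreated control.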

[2] = system: BV2 (mouse microglia) cell line; experiment: as above; details: for 1. Cell count (% control) / 2. Nuclear Area (% Control) / 3. Nuclear DNA Intensity (% control): 48 hours treatment
How it was run: as §1

[3] = system: HMC3 (human microglia) cell line; experiment: pHrodo-myelin phagocytosis/cell viability high content imaging assay: phagocytosis signal; assay type: cell-based
How it was run: (§2)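 Cells receive pHrodo-myelin, then are imaged at high content approximately 22 hours later. Phagocytosis signal and viability are captured in the same run. Three measurements are extracted per well.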

[4] = system: BV2 (mouse microglia) cell line; experiment: as above; assay type: cell-based
How it was run: as §2

[5] = HMC3, compound 10 uM, pHrodo-myelin
[6] = BV2, compound 10 uM, pHrodo-myelin
[7] = HMC3 cells, 10 uM compound, 48 hours treatment, pHrodo-myelin final 20 hours
[8] = BV2 cells, 10 uM compound, 48 hours treatment, pHrodo-myelin final 20 hours

| SMILES | 1. Cell count (% control) ([1]; HMC3, compound 10 uM) | 2. Nuclear Area (% Control) ([1]; HMC3, compound 10 uM) | 3. Nuclear DNA Intensity (% control) ([1]; HMC3, compound 10 uM) | 1. Cell count (% control) ([2]; BV2, compound 10 uM) | 2. Nuclear Area (% Control) ([2]; BV2, compound 10 uM) | 3. Nuclear DNA Intensity (% control) ([2]; BV2, compound 10 uM) | 4. Phagocytosis (% control) [3, 5] | 4. Phagocytosis (% control) [4, 6] | cytotoxicity in human microglial cells (cell count < 70% control) [1] | 1. Cell count (% control) ([1]; HMC3 cells, 10 uM compound) | 2. Nuclear Area (% Control) ([1]; HMC3 cells, 10 uM compound) | 3. Nuclear DNA Intensity (% control) ([1]; HMC3 cells, 10 uM compound) | cytotoxicity in mouse microglial cells (cell count < 70% control) [2] | 1. Cell count (% control) ([2]; BV2 cells, 10 uM compound) | 2. Nuclear Area (% Control) ([2]; BV2 cells, 10 uM compound) | 3. Nuclear DNA Intensity (% control) ([2]; BV2 cells, 10 uM compound) | 4. Phagocytosis (% control) [3, 7] | 4. Phagocytosis (% control) [4, 8] |
| --- | --- | --- | --- | --- | --- | --- | --- | --- | --- | --- | --- | --- | --- | --- | --- | --- | --- | --- |
| N[C@@H](CC(=O)Nc1ccc(Oc2cc(F)c(F)cc2Br)cc1)C(=O)O [UNC10303167A] | 105.9 % control | 102.5 % Control | 96.0 % control | 64.5 % control | 104.8 % Control | 103.7 % control | 85.8 % control | 179.3 % control |  |  |  |  |  |  |  |  |  |  |
| CN(C)c1ccc2c(c1)Sc1cc(N(C)C)ccc1N2.CS(=O)(=O)O.CS(=O)(=O)O [UNC10303097A, reference compound] |  |  |  |  |  |  |  |  | manifested toxicity in both microglial cell lines | 59.1 % control | 75.8 % Control | 120.7 % control | manifested toxicity in both microglial cell lines | 14.2 % control | 111.0 % Control | 58.9 % control | 6.7 % control | 102.3 % control |
| Cl.NC(=O)c1cnc(N[C@@H]2CCCC[C@@H]2N)nc1Nc1cccc(-n2nccn2)c1 [UNC10302682A] |  |  |  |  |  |  |  |  |  | 54.1 % control | 63.7 % Control | 181.4 % control |  | 28.1 % control | 80.4 % Control | 42.1 % control | 0.13 % control | 0.00121 % control |
| CC1(C)CCC(CN2CCN(c3ccc(C(=O)NS(=O)(=O)c4ccc(NCC5CCOCC5)c([N+](=O)[O-])c4)c(Oc4cnc5[nH]ccc5c4)c3)CC2)=C(c2ccc(Cl)cc2)C1 [UNC10302836A] | 133.1 % control | 98.6 % Control | 97.8 % control | 115.0 % control | 107.1 % Control | 100.7 % control | 79.7 % control | 211.1 % control |  |  |  |  |  |  |  |  |  |  |
| Cn1nccc1Nc1nccc(-c2ccn([C@H](CO)c3ccc(Cl)c(F)c3)c(=O)c2)n1 [UNC8131A] | 54.4 % control | 77.5 % Control | 167.5 % control | 15.3 % control | 134.5 % Control | 44.7 % control | 12.1 % control | 0.00107 % control |  |  |  |  |  |  |  |  |  |  |
| COc1cc(C(=O)NS(=O)(=O)c2ccccc2C)ccc1Cc1cn(C)c2ccc(NC(=O)OC3CCCC3)cc12 [UNC10121228A] |  |  |  |  |  |  |  |  |  | 110.1 % control | 100.7 % Control | 103.6 % control |  | 90.6 % control | 103.2 % Control | 103.9 % control | 87.2 % control | 129.0 % control |
| Cl.N=C(CCl)NCCC[C@H](NC(=O)c1ccccc1)C(N)=O [UNC10303161A] | 164.2 % control | 99.9 % Control | 88.6 % control | 107.1 % control | 104.4 % Control | 99.5 % control | 67.2 % control | 134.6 % control |  |  |  |  |  |  |  |  |  |  |
| C[C@@H]1O[C@@H](O[C@H]2[C@H](Oc3cc(O)c4c(c3)O[C@H](c3ccc(O)cc3)CC4=O)O[C@H](CO)[C@@H](O)[C@@H]2O)[C@H](O)[C@H](O)[C@H]1O [UNC10242153A] |  |  |  |  |  |  |  |  |  | 139.8 % control | 102.9 % Control | 93.8 % control |  | 113.5 % control | 104.9 % Control | 98.8 % control | 65.7 % control | 167.6 % control |
| COc1cc(Nc2ncc(F)c(Nc3ccc4c(n3)N(COP(=O)([O-])[O-])C(=O)C(C)(C)O4)n2)cc(OC)c1OC.[Na+].[Na+] [UNC10302863A] |  |  |  |  |  |  |  |  |  | 80.8 % control | 86.8 % Control | 124.3 % control |  | 16.5 % control | 113.6 % Control | 22.9 % control | 201.3 % control | 0.00651 % control |
| O=C(N/N=C/c1ccc(Cl)cc1)c1ccccc1 [UNC10302877A] |  |  |  |  |  |  |  |  |  | 103.0 % control | 94.5 % Control | 106.0 % control |  | 100.1 % control | 103.0 % Control | 107.1 % control | 87.3 % control | 104.1 % control |
| O=C(NNc1nc2cc(F)ccc2n2cccc12)c1cnccn1 [UNC10302850A] |  |  |  |  |  |  |  |  |  | 86.1 % control | 94.6 % Control | 106.5 % control |  | 29.4 % control | 129.5 % Control | 94.0 % control | 103.0 % control | 362.4 % control |
| C[C@@H](Oc1cc(-c2cnn(C3CCNCC3)c2)cnc1N)c1c(Cl)ccc(F)c1Cl [UNC10220526A] |  |  |  |  |  |  |  |  |  | 41.7 % control | 75.9 % Control | 183.7 % control |  | 44.9 % control | 109.8 % Control | 15.3 % control | 0.09 % control | 0.00113 % control |
| CCC(=C(c1ccc(O)cc1)c1ccc(OCCN(C)C)cc1)c1ccccc1 [UNC10302895A] |  |  |  |  |  |  |  |  |  | 134.2 % control | 100.6 % Control | 93.3 % control |  | 114.3 % control | 103.3 % Control | 103.4 % control | 89.5 % control | 182.9 % control |
| O=S(=O)(c1ccc2c(c1)C(=NO)c1cc(S(=O)(=O)N3CCCCC3)ccc1-2)N1CCCCC1 [UNC10302976A] |  |  |  |  |  |  |  |  |  | 69.8 % control | 63.2 % Control | 194.1 % control |  | 11.0 % control | 116.9 % Control | 256.7 % control | 12.0 % control | 51.8 % control |
| O=C1C=C(NCCc2cc(Br)c(O)c(Br)c2)C(=O)c2ncccc21 [UNC10303225A] | 62.3 % control | 83.0 % Control | 132.4 % control | 8.3 % control | 122.7 % Control | 97.1 % control | 54.3 % control | 163.7 % control |  |  |  |  |  |  |  |  |  |  |
| CCn1c(=O)/c(=C2\Sc3ccccc3N2C)s/c1=C\c1ccccn1 [UNC10302975A] |  |  |  |  |  |  |  |  |  | 120.1 % control | 99.3 % Control | 95.9 % control |  | 107.1 % control | 104.2 % Control | 108.3 % control | 87.9 % control | 118.8 % control |
| CS[C@@]1(C(=O)Nc2ccc3[nH]nc(-c4ccc(OC(C)C)nc4)c3c2)CCN(CC(=O)N2CC=C(c3ccc(-c4ncn(C)n4)cc3)CC2)C1 [UNC10302902A] |  |  |  |  |  |  |  |  |  | 113.2 % control | 96.5 % Control | 97.1 % control |  | 54.0 % control | 110.5 % Control | 112.2 % control | 45.1 % control | 339.1 % control |
| Oc1c(F)cc(-c2cnccc2-c2ccc(N3CCOCC3)cc2)cc1F [UNC10302871A] | 123.1 % control | 101.3 % Control | 92.9 % control | 98.2 % control | 107.6 % Control | 98.3 % control | 84.7 % control | 174.2 % control |  |  |  |  |  |  |  |  |  |  |
